The source of these data is patent publication US20250000907A1, “ENGINEERED IMMUNE CELLS WITH REDUCED SIRT6 EXPRESSION” (H. LEE MOFFITT CANCER CENTER AND RESEARCH INSTITUTE, INC., priority 2021, published 2025).

Data set [1] concerns TILs isolated from B16F10 tumors. Description: IFN-γ ELISPOT assay of B16F10 TILs re-challenged with B16F10 cells. The format is cell-based, mouse. The conditions noted are these: B16F10 TILs re-challenged with B16F10 cells ex vivo, FIG. 7G. The procedure: Lymphocytes from subcutaneous tumors were isolated by dicing the tissues followed by enzymatic digestion in PBS containing collagenase type 4 (2 mg/ml, Worthington Biochemical) and DNase I (0.25 mg/ml, Sigma-Aldrich) for 45 min with occasional shaking at 37° C. Cell suspensions were then twice filtered through 100 μm and 40 μm cell strainers (Thermo Fisher Scientific) to obtain single-cell suspension followed by a PBS wash and red blood cell lysis using RBC Lysis Buffer (Biolegend). TILs were finally isolated by density gradient centrifugation using Percoll (GE Healthcare) and were further purified using […] MicroBeads Kit™ (Miltenyi Biotec) according to the manufacturer's instructions. T cell purity was greater than 90% (data not shown). Fresh TILs were used directly for phenotypic and metabolic analyses or were cultured in complete RPMI medium for functional assays.
The number of IFN-γ producing cells was evaluated in an ELISPOT assay. […] After washing steps and successive biotinylated anti-IFN-γ antibody (R4-6A2, Mabtech, Inc.) and Streptavidin-HRP (BD Bioscience) labeling, spots were detected using AEC Substrate Kit (BD Biosciences) and counted using an AID ELISPOT Reader System (Autoimmun Diagnostika GmbH).

Data set [2] concerns Pmel T cells stimulated with gp100. Description: Intracellular granzyme B staining by flow cytometry. The format is cell-based, mouse. The conditions noted are these: activated Pmel T cells, OSS vs. DMSO, FIG. 7B. The procedure:
For intracellular cytokine staining, cells were firstly stimulated with phorbol 12-myristate 13-acetate (PMA, 10 ng/ml, Sigma) and ionomycin (1 μM/ml, Sigma) for 1 hour followed by GolgiPlug™ treatment (1% c, BD Biosciences) for 6 h and then stained with IFN-γ (BV711, BD Biosciences) and Granzyme B (Alexa647, Biolegend). Cells were acquired on a BD FACSymphony™ A5 and LSR II (Becton Dickinson), and data were analyzed with FlowJo software Version 10.0 software.
On the technique in general: In flow cytometry, cells or beads pass a laser one at a time.

The test system of data set [3] is stimulated CD8+ T cells from WT vs. Sirt2−/− Pmel mice. Description: Seahorse ECAR of stimulated CD8+ T cells from WT vs. Sirt2−/− Pmel mice. It counts as cell-based, mouse. The settings on record: FIG. 3B. The procedure: FIG. 3: Sirtuins in the immune system. A, WB of Sirt1-3,5-7 expression in activated CD3+ T cells from WT vs. Sirt2−/− mice. ECAR measured by Seahorse analyzer (B) and IFN-γ ELISPOT assay (C) in stimulated CD8+ T cells from WT vs. Sirt2−/− Pmel mice treated with vehicle (Ctl), or Sirt6 inhibitor (Sirt6i). *P<0.05, **P<0.01, ****P<0.0001.
Extracellular acidification rate (ECAR) and oxygen consumption rate (OCR) were measured using the Seahorse XF analyzer (Agilent technologies). Glycolysis Stress Test (GST) and mitochondrial stress test (MST) were purchased from Agilent technologies and performed according to the kit manufacturer's instructions. […] For GST, ECAR and OCR were measured under basal conditions and in response to 10 mM glucose, 1 μM oligomycin and 50 mM 2-DG successively to calculate basal glycolytic rate, glycolytic capacity (in response to oligomycin), and glycolytic reserve (glycolytic capacity-basal rate). For MST, OCR and ECAR were measured under basal conditions and in response to sequential injections of 1 μM oligomycin, 1 μM FCCP (Carbonyl cyanide 4-trifluoromethoxyphenylhydrazone) and 0.5 μM rotenone/antimycin A to calculate basal respiration rates (baseline OCR-rotenone/antimycin A OCR), maximal respiration (FCCP OCR-rotenone/antimycin A OCR), and oxidative reserve (maximum respiration rate-basal respiration rate). […]

Data set [4] has as its system patient-derived human NSCLC tumor cells. The data set is described as follows: LDH cytotoxic assay of human NSCLC TILs co-cultured with autologous tumor cells. The conditions noted are these: ex vivo expanded autologous TILs co-cultured with patient-derived NSCLC tumor cells. It counts as cell-based. The procedure: (§1) Evaluation of functional cytotoxic activity was performed using Pierce™ LDH Cytotoxicity Assay Kit (Thermo Fisher Scientific) according to the manufacturer's protocol. B16F10 cells or human NSCLC autologous tumor cells were used as target cells. Mouse CD8+ enriched T cells from gp100-stimulated Pmel splenocytes or human NSCLC TILs were used as effector cells. Target tumor cells were co-cultured with effector cells in 96-well round-bottom microplates at the indicated effector:target ratios with and without Sirt6 inhibitor. After 6 hr, the percentage of specific LDH release was calculated according to the following formula: % cell lysis=(experimental value−effector cells spontaneous release−target cells spontaneous release)×100/(target cells maximum release−target cells spontaneous release), where “experimental” corresponds to the experimental signal value, “effector spontaneous” to spontaneous release of LDH from effector cells alone, “target spontaneous” to spontaneous release of LDH from target cells alone and “maximum release” to the maximum release of LDH from target cells in medium containing 1% Triton X-100.

Data set [5] concerns B16F10 cells. The data set is described as follows: LDH release cytotoxic assay of Pmel T cells against B16F10 cells. The format is cell-based, mouse. The settings on record: Pmel T cells ex vivo, OSS vs. DMSO, FIG. 7D. The procedure:
as §1

With `O=C(Nc1ccc(O)c(C(=O)O)c1)c1cccc(NC(=O)c2ccco2)c1` [OSS_128167], the IFN-γ release entry in data set [1] is “increase”. Besides, the “granzyme B expression” value in data set [2] is “increases”. For the same molecule, the “effect on metabolic activity (ECAR) with Sirt2 deficiency” value in data set [3] (Sirt2−/− Pmel CD8+ T cells) is “potentiated”. Moreover, in data set [3] (activated T cells, Sirt6i vs. vehicle), the “metabolic activity of T cells (ECAR)” value is listed as “increases”. Further, the TIL cytotoxic activity result in data set [4] is on record as “enhanced”. The “cytotoxic activity against B16F10 cell challenge” value in data set [5] is on record as “superior cytotoxic activity”.
